Assay results taken from EPA's ToxValDB 9.5 (doi:10.2903/j.efsa.2014.3742).
Values after ≈ are worked out from the molar mass of the structure shown.

Legend:
Tagia sp. = details: for LC50: acute
Oncorhynchus mykiss = details: for LC50: acute, duration: 96 hours, mortality; for NOEC: chronic/long-term
Folsomia candida = details: chronic/long-term
Apis mellifera = details: acute, mortality
Colinus virginianus = details: acute; oral; mortality
Oryctolagus sp. = details: reproduction developmental; morphology
Daphnia magna = details: chronic/long-term; duration: 21 days

Compound	LC50 (Tagia sp.)	NOEC (Tagia sp.; chronic/long-term)	LC50 (Oncorhynchus mykiss)	NOEC (Oncorhynchus mykiss; duration: 28 days, other)	NOEC (Folsomia candida)	LD50 (Apis mellifera; dermal)	LD50 (Apis mellifera; oral, unspecified)	LD50 (Colinus virginianus)	LC50 (Tagia sp.; duration: 14 days, mortality)	NOEC (Oncorhynchus mykiss; duration: 21 days)	NOAEL (Oryctolagus sp.)	NOEC (Daphnia magna)	NOEC (Anas platyrhynchos; reproductive, duration: 15 months, morphology)	LC50 (Anas platyrhynchos; short-term, duration: 5 days, oral, feed, mortality)	LC50 (Rattus norvegicus; acute, mortality)	NOAEL (Rattus norvegicus; reproduction developmental)	NOAEL (Rattus norvegicus; reproduction developmental, morphology)	NOAEL (Rattus norvegicus; subchronic, duration: 90 days, oral, histopathology: neoplastic)
c1nc[nH]n1 [1H-1,2,4-Triazole]	> 1000 mg/kg	≤ 1 mg/kg	498 µg/mL (≈ 7.21 mM)	3.2 mg/L	1.8 mg/kg													
Nc1ncn[nH]1 [Amitrole]			> 1000 µg/mL			> 100 µg/piece	> 152 µg/piece	> 2150 mg/kg	> 448 mg/kg	100 mg/L	3 mg/kg-day	0.32 mg/L	16 mg/kg-day	> 829 mg/kg	5000 mg/kg	0.9 mg/kg-day	0.12 mg/kg-day	0.1 mg/kg-day
